PubChem BioAssay AID1996
In brackets after ≈: the same amount, converted by molar mass.

Conditions: buffer; pH 7.4; 200.0 µM
Cc1ccc(C)c(N2CCN(CC3CCCCC3)CC2)c1 gave a solubility kinetic of 2.3 µg/mL (≈ 8.03 µM).
For COc1ccccc1NC(=O)NCC1CC1(Cl)Cl (configuration not stated), the solubility kinetic was 42.1 µg/mL (≈ 146 µM).
Work on CC(C)c1ccc(NC(=O)COc2ccccc2)cc1 yielded a solubility kinetic of 10.1 µg/mL (≈ 37.5 µM).
CCN(CC(=O)Nc1c(F)cccc1F)C(=O)C1CC1C (configuration not stated) gave a solubility kinetic greater than 44.4 µg/mL.
In the case of Cc1ccc(NS(=O)(=O)c2c(C)[nH]c(=O)[nH]c2=O)c(C)c1, the solubility kinetic is reported as greater than 46.4 µg/mL.
CCn1cc(CCC(=O)NC(C)c2ccccc2)c2ccccc21 (configuration not stated) gave a solubility kinetic of 7.4 µg/mL (≈ 23.1 µM).
In the case of COc1ccccc1NC(=O)N1CCOCC1, the solubility kinetic is reported as greater than 35.4 µg/mL.
Work on O=C(NCCCn1ccnc1)c1ccc(Cl)cc1 yielded a solubility kinetic greater than 39.6 µg/mL.
CCN1CSC(=S)N(Cc2ccccc2)C1 showed a solubility kinetic of 37.5 µg/mL (≈ 149 µM).
With O=c1c2c([nH]c3ccccc13)CCC2 the solubility kinetic was greater than 27.8 µg/mL.
CCC(C)NC(=O)CSc1ncnc2sccc12 (configuration not stated) gave a solubility kinetic greater than 42.2 µg/mL.
For O=C(CN1C(=O)NC2(CCSC2)C1=O)NCc1ccccc1 (configuration not stated), the solubility kinetic was greater than 47.9 µg/mL.
Cc1csc(SCC(=O)NC(=O)C2CCCCC2)n1 showed a solubility kinetic greater than 44.8 µg/mL.
For Cc1ccc(S(=O)(=O)N2CCCCC2)cc1NC(=O)CSc1nnc(C2CC2)n1C, the solubility kinetic was greater than 67.4 µg/mL.
With O=C1CN(C(=O)COc2ccc(Br)cc2)c2ccccc2N1 the solubility kinetic was 10.3 µg/mL (≈ 28.5 µM).
For Cc1nc2ccccc2cc1C(=O)NCc1ccccc1, the solubility kinetic was greater than 41.5 µg/mL.
Compound CCCOc1cccc(C(=O)Nc2cccc3ncccc23)c1 has a solubility kinetic of 7.6 µg/mL (≈ 24.8 µM).
CC(C)C(OC(=O)/C=C/c1ccc2c(c1)OCO2)C(=O)NC(N)=O (configuration not stated) gave a solubility kinetic of 6.6 µg/mL (≈ 19.7 µM).
Compound CCCCCCCCCCOC(=O)NC1CCS(=O)(=O)C1 (configuration not stated) has a solubility kinetic of 1.1 µg/mL (≈ 3.44 µM).
CC(C)Cn1c(=S)[nH]c2ccccc2c1=O gave a solubility kinetic of 1.6 µg/mL (≈ 6.83 µM).
Compound Cc1cc(C(=O)N2CCc3ccccc3C2)no1 has a solubility kinetic greater than 36.3 µg/mL.
With Cc1ccc(OCCCCN2CCc3ccccc3C2)cc1.Cl the solubility kinetic was 22.8 µg/mL.
Work on O=C(Nc1cccc(Cl)c1)Nc1c[nH]c(=O)[nH]c1=O yielded a solubility kinetic of 3.4 µg/mL (≈ 12.1 µM).
Work on O=Cc1cnc(N2CCN(c3ccccc3)CC2)s1 yielded a solubility kinetic greater than 41 µg/mL.
CN1CCC(OC(c2ccccc2)c2ccccc2)CC1.Cl gave a solubility kinetic greater than 47.7 µg/mL.
For Brc1ccccc1CN1CCC(Cc2ccccc2)CC1, the solubility kinetic was 2.6 µg/mL (≈ 7.55 µM).
CCOC(=O)C1CCN(CCC(=O)Nc2cc(C)cc(C)c2)CC1 showed a solubility kinetic greater than 49.9 µg/mL.
COC(=O)c1c(C)[nH]c(C(=O)C(C)OC(=O)c2ccco2)c1C (configuration not stated) showed a solubility kinetic of 4.5 µg/mL (≈ 14.1 µM).
Work on CC1CN(C(=S)Nc2ccccc2F)CC(C)O1 (configuration not stated) yielded a solubility kinetic greater than 40.3 µg/mL.
With NC(=O)c1nn(CC(=O)Nc2ccc3c(c2)OCO3)cc1[N+](=O)[O-] the solubility kinetic was greater than 50 µg/mL.
Cc1cc(=O)n2c(n1)NC(Nc1cccc(C)c1C)=NC2c1ccccc1 (configuration not stated) showed a solubility kinetic of 1.7 µg/mL (≈ 4.73 µM).
For Cc1cc(C)cc(NC(=S)N2CCC(NC(=O)C3CC3)CC2)c1, the solubility kinetic was greater than 49.7 µg/mL.
In the case of C=CC1CN2CCC1CC2C(OC(C)=O)c1ccnc2ccc(OC)cc12 (configuration not stated), the solubility kinetic is reported as greater than 55 µg/mL.
Work on CCCCN1C(=O)C(=O)N(CC(=O)Nc2ccc(OC(F)(F)F)cc2)C1=O yielded a solubility kinetic of 6.6 µg/mL (≈ 17 µM).
COc1ccc(Cl)cc1S(=O)(=O)NCCCn1ccnc1 gave a solubility kinetic of 48.6 µg/mL (≈ 147 µM).
For N#C/C(=N\O)c1nc2ccccc2s1, the solubility kinetic was greater than 30.5 µg/mL.
In the case of CC(=O)c1ccc(NC(=S)N2CCCCCC2)cc1, the solubility kinetic is reported as greater than 41.5 µg/mL.
O=C(CNC(=O)c1ccc(Cl)cc1)Nc1ccccc1C(F)(F)F showed a solubility kinetic of 3.4 µg/mL (≈ 9.53 µM).
With Cc1cc(C)nc(Nc2ccccc2F)n1.Cl the solubility kinetic was 26.4 µg/mL.
For Cc1ccccc1CC(=O)N1CCCC1, the solubility kinetic was 29.7 µg/mL (≈ 146 µM).
In the case of CCOc1ncccc1C(=O)OCC(=O)Nc1ccc(Cl)cn1, the solubility kinetic is reported as 15 µg/mL (≈ 44.7 µM).
O=C(O)CCc1ccc(-c2ccccc2)n1-c1cccc(C(=O)O)c1 showed a solubility kinetic greater than 50.3 µg/mL.
Compound CCSCc1nc2ccccn2c1Br has a solubility kinetic of 34.6 µg/mL (≈ 128 µM).
For CC12CCC(=O)N1C(C(=O)NCc1ccccc1F)CS2 (configuration not stated), the solubility kinetic was 44.7 µg/mL (≈ 145 µM).
With CN1CCN(CCC(=O)Nc2ccc(Br)cc2)CC1 the solubility kinetic was 48.5 µg/mL (≈ 149 µM).
In the case of O=C(CN1C(=O)NC2(CCCC2)C1=O)NCc1ccccc1, the solubility kinetic is reported as greater than 45.2 µg/mL.
CC(C)(C)/C(O)=C/c1nc2ccccc2oc1=O gave a solubility kinetic of 36.8 µg/mL (≈ 150 µM).
For COc1ccc(NC(=O)CC2Oc3ccccc3NC2=O)c(OC)c1 (configuration not stated), the solubility kinetic was 4 µg/mL (≈ 11.7 µM).
Work on CCN(C(=S)Nc1ccc(OC(F)F)cc1)C1CCCCC1 yielded a solubility kinetic of 5.4 µg/mL (≈ 16.4 µM).
Work on Cc1cc(NC(=O)c2cccs2)ncc1NC(=O)C(C)(C)C yielded a solubility kinetic of 38.6 µg/mL (≈ 122 µM).
In the case of COc1ccc(NS(=O)(=O)c2cn(C)nc2C)cc1, the solubility kinetic is reported as greater than 42.2 µg/mL.
Compound C/C=C/C(=O)OCC(=O)Nc1ccc(OC)c(OC)c1 has a solubility kinetic greater than 41.9 µg/mL.
Compound O=C(COC(=O)c1cccc(Cl)c1Cl)NC1CCCC1 has a solubility kinetic of 12.8 µg/mL (≈ 40.5 µM).
For O=C([O-])Cc1csc(-c2cccc(Oc3ccccc3)c2)n1.[Na+], the solubility kinetic was 49.3 µg/mL.
O=C(C(=O)N1CCCCCC1)c1c[nH]c2ccccc12 gave a solubility kinetic greater than 40.5 µg/mL.
With O=C(O)c1csc(-c2cccs2)n1 the solubility kinetic was greater than 31.7 µg/mL.
For COc1ccc(C(=O)NCCNc2nc3c(C)cccc3cc2C#N)cc1, the solubility kinetic was 0.4 µg/mL (≈ 1.11 µM).
COC(=O)C1CSC(c2ccc(Cl)cc2)N1C(=O)c1ccccc1 (configuration not stated) showed a solubility kinetic of 34.1 µg/mL (≈ 94.2 µM).
For Cc1cccc(C(=O)OCC(=O)N2CC(C)OC(C)C2)c1C (configuration not stated), the solubility kinetic was greater than 45.8 µg/mL.
In the case of O=C(COC(=O)c1ccc(O)cc1O)NC1CC1, the solubility kinetic is reported as greater than 37.7 µg/mL.
Work on O=C(Nc1ccc(Cl)c(Cl)c1)N1CCOCC1 yielded a solubility kinetic greater than 41.3 µg/mL.
CSc1ccc(C(=O)C2CCCN(C)C2)cc1 (configuration not stated) gave a solubility kinetic greater than 37.4 µg/mL.
